Calls of active or inactive are those of the source. The rule behind the calls is not given here.
Assays:
[1] = system: RAW264.7; experiment: Antiinflammatory activity against mouse RAW264.7 cells assessed as inhibition of LPS-induced NO production at 80 uM preincubated for 2 hrs followed by LPS stimulation measured after 24 hrs by Griess reagent based assay relative to control; format: functional
[2] = system: RAW264.7; experiment: Antiinflammatory activity against mouse RAW264.7 cells assessed as inhibition of LPS-induced NO production preincubated for 2 hrs followed by LPS stimulation measured after 24 hrs by Griess reagent based assay; format: functional, cell-based
[3] = organism: Mus musculus; experiment: Protection against hypoxia-induced injury in […] cells assessed as increase in cell viability at 40 uM incubated for 20 hrs under hypoxia condition by CCK-8 assay; format: functional, cell-based
[4] = system: RAW264.7; experiment: Antiinflammatory activity against mouse RAW264.7 cells assessed as inhibition of LPS-induced TNFalpha production preincubated for 1 hr followed by LPS stimulation measured after 24 hrs by ELISA; format: functional, cell-based
[5] = system: RAW264.7; experiment: Antiinflammatory activity against mouse RAW264.7 cells assessed as inhibition of LPS-induced IL-6 production preincubated for 1 hr followed by LPS stimulation measured after 24 hrs by ELISA; format: functional, cell-based
[6] = Cytotoxicity against […] cells assessed as decrease in cell viability at 20 uM incubated for 24 hrs by CCK-8 assay; format: cell-based

Structure (SMILES)	inhibition at 80 µM [1] [%]	IC50 [2] [µM]	inhibition [4]	inhibition [5]	also measured
C=C1C(=O)C/C=C(\C)[C@@H](O)C[C@@H]2[C@@H]1CC2(C)C	< 50	–	–	–	–
CCC(=O)/C=C/C(C)(C)C/C=C(\C)CCC=O	< 50	–	–	–	–
C=C1CC[C@H]2O[C@]2(C)[C@@H](O)C[C@@H]2[C@@H]1CC2(C)C [SUBEROSOL A]	< 50	–	–	–	–
CO[C@@H]1CC/C(C)=C/CC(C)(C)/C=C/C(=O)[C@H]1CO	–	27.2	Dose-dependent effect	Dose-dependent effect	Activity [3]: Active
COC1CC/C(C)=C/CC(C)(C)/C=C/C(=O)C1CO (centres undefined)	–	18.1	Dose-dependent effect	Dose-dependent effect	Activity [3]: Active
C/C1=C\CC(C)(C)/C=C/C(=O)[C@H](C)[C@H](O)CC1	< 50	–	–	–	–
C/C1=C\CC(C)(C)/C=C/[C@H](O)[C@H](C)CCC1	< 50	–	–	–	–
CC1(C)C/C=C(/C=O)CC[C@H]2[C@H]1CC(=O)[C@]2(C)O	< 50	–	–	–	–
COc1ccc2c(c1)c(CC(=O)O)c(C)n2C(=O)c1ccc(Cl)cc1 [INDOMETHACIN]	–	33.6	–	–	–
C/C1=C\CC(C)(C)/C=C/C(=O)[C@@H](CO)CCC1	–	70.6	Dose-dependent effect	Dose-dependent effect	–
C/C1=C\CC[C@@]2(C)O[C@@H]2[C@@H](O)C(C)(C)/C=C/C1=O	< 50	–	–	–	–
C/C1=C\CC[C@@]2(C)O[C@@H]2CC(C)(C)/C=C/C1=O [ZERUMBONE EPOXIDE]	–	22.3	Dose-dependent effect	Dose-dependent effect	–
C/C1=C\C[C@H](O)[C@]2(C)O[C@H]2CC(C)(C)/C=C/C1=O	< 50	–	–	–	–
CO[C@@H]1CC[C@@]2(C)O[C@@H]2CC(C)(C)/C=C/C(=O)[C@@H]1C	< 50	–	–	–	–
CO[C@H]1CC[C@]2(C)O[C@H]2CC(C)(C)/C=C/C(=O)[C@H]1C	< 50	–	–	–	–
CC1(C)C/C=C(/C=O)CC[C@@H]2[C@@H]1CC(=O)[C@@]2(C)O	< 50	–	–	–	–
C=C1CC[C@H](O)[C@H](C)C(=O)C[C@@H]2[C@@H]1CC2(C)C	< 50	–	–	–	–
C/C1=C\CC(C)(C)/C=C/C(=O)[C@H](CO)CCC1	–	33.1	Dose-dependent effect	Dose-dependent effect	–
C/C1=C\CC(C)(C)/C=C/C(=O)/C(C)=C/CC1 [ZERUMBONE]	–	13.6	Dose-dependent effect	Dose-dependent effect	Activity [3]: Active
C/C1=C\CC(C)(C)/C=C/C(=O)[C@@H](C)[C@@H](O)CC1	< 50	–	–	–	–
CO[C@H]1CC/C(C)=C/CC(C)(C)/C=C/C(=O)[C@@H]1CO	–	41.4	Dose-dependent effect	Dose-dependent effect	–
C/C1=C\CC(C)(C)/C=C/C(=O)/C(CO)=C/CC1	–	–	–	–	Activity [6]: Toxic
